Laboratory results as given in PMC11648822, “Lactam Truncation Yields a Dihydroquinazolinone Scaffold with Potent Antimalarial Activity that Targets PfATP4” (Chemmedchem, 2024).
pEC50: −log10 of the molar value.

Biological target: T1, Dd2‐PfATP4^WT (Plasmodium falciparum, UniProt A0A143ZZK9, G1128R)
T1 construct: We prepared membranes from Dd2‐Polδ‐PfATP4^G358S parasites (generated previously[22]) and Dd2‐Polδ parental parasites; endogenous in cells; host or cells: P. falciparum Dd2-Polδ trophozoites (membrane preparation)
T1 sequence (A0A143ZZK9 1-1264 G1128R): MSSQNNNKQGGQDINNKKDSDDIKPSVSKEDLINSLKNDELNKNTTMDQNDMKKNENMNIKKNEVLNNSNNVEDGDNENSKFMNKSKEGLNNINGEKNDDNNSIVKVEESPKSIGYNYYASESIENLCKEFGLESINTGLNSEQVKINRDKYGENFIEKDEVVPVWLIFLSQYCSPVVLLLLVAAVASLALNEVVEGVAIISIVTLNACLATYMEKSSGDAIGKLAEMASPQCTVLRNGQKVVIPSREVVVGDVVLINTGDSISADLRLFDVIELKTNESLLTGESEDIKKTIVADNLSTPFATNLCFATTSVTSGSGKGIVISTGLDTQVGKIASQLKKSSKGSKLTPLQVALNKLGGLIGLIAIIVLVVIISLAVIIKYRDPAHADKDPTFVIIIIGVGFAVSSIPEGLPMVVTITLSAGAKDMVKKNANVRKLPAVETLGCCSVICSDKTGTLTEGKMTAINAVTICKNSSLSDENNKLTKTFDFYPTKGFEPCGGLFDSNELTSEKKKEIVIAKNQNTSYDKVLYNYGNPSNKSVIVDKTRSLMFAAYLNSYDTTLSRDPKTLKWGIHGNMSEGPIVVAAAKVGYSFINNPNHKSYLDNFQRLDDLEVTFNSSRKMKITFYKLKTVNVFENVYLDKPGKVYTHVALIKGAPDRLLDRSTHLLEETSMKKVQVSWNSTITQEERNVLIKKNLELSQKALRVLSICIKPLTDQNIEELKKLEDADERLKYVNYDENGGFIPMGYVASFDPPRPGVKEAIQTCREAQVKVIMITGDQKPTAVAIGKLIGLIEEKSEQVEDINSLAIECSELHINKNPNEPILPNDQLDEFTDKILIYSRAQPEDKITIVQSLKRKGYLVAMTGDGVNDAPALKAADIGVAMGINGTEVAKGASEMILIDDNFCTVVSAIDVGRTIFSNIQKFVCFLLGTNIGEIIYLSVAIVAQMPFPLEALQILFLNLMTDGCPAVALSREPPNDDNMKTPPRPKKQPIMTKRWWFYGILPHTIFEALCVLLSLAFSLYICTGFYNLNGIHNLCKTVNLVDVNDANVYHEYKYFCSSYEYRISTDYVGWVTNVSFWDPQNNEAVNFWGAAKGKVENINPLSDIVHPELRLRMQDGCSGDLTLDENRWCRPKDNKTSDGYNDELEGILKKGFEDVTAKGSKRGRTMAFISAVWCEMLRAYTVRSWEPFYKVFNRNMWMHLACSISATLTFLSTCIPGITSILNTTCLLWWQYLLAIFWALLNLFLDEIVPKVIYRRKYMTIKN
Test: PfATP4 Na+ assay (membrane ATPase), Dd2-Polδ parental membranes
Type: biochemical, P. falciparum
Details: membranes from Dd2-Polδ parental parasites
Experimental: Figure 4 Dihydroquinazolinone analogs 14 and 36 (WJM062) inhibit Na^+‐ATPase activity in membranes prepared from isolated P. falciparum parasites, consistent with them being PfATP4 inhibitors. (A) The effects of dihydroquinazolinone compounds (2 μM), dihydroartemisinin (DHA; 50 nM; negative control) and 0.2 % v/v DMSO (solvent‐only control) on membrane ATPase activity under high‐[Na^+] conditions (152 mM Na^+) and low‐[Na^+] conditions (2 mM Na^+; stemming from the addition of 1 mM Na2ATP) in the presence and absence of the PfATP4 inhibitor cipargamin (50 nM). The membranes were prepared from isolated trophozoite‐stage 3D7 parasites. The Pi produced is expressed as a percentage of that measured in the 152 mM Na^+ Control. The data are from four independent experiments performed with different membrane preparations; the symbols show the data from individual experiments and the bars show the mean (+SEM). In individual experiments, the Pi produced in the 152 mM Na^+ Control varied from 66 to 96 nmol per mg (total) protein per min. A repeated measures ANOVA with a post hoc Tukey test was used to compare the (pre‐normalised) data for different compounds and conditions. […] In B−D, the Pi production measured in the low‐[Na^+] (2 mM) condition was subtracted from that measured in high‐[Na^+] […] The PfATP4‐associated ATPase activity is expressed as a percentage of that obtained for the high‐[Na^+] […]

SMILES | pEC50
COc1cc(F)c2c(c1)NC(C)(C(=O)Nc1cncc(Cl)c1)N(C)C2=O (centres unmarked) [Compound 36, N‐(5‐Chloropyridin‐3‐yl)‐5‐fluoro‐7‐methoxy‐2,3‐dimethyl‐4‐oxo‐1,2,3,4‐tetrahydroquinazoline‐2‐carboxamide] | 8.11
CN1C(=O)c2ccc(Cl)cc2NC1(C)C(=O)Nc1cncc(Cl)c1 (centres unmarked) [Compound 14, 7‐Chloro‐N‐(5‐chloro‐3‐pyridyl)‐2,3‐dimethyl‐4‐oxo‐1H‐quinazoline‐2‐carboxamide] | 8.08
